Here are results for 2 compounds from ChEMBL document CHEMBL4421717, “Antagonists and agonists of bitter taste receptors and uses thereof” (2012).

Usually IC50 stands for the concentration that gives 50% inhibition.

The source made the active and inactive calls. No cut-off for these calls is given here.

Common to all, as to type: functional, cell-based
Assay [1] has as its target T1, Taste receptor type 2 member 46 (Homo sapiens) (UniProt P59540).
T1 sequence (whole entry): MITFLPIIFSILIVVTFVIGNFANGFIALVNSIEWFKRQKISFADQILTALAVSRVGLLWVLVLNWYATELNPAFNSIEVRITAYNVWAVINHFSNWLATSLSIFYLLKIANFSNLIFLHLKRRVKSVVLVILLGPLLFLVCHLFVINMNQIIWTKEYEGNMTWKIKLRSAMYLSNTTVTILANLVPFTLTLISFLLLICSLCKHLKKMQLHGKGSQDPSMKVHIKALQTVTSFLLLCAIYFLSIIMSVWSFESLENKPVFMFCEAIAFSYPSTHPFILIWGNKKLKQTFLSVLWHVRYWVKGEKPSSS
As to the kind of experiment: Competitive antagonist activity at recombinant human N-terminal rat ST3 receptor-fused TAS2R46 expressed in HEK293T cells co-expressing Galpha16gust44 assessed as inhibition strychnine-induced intracellular calcium level by measuring strychnine induced maximum signal amplitude at 10 uM by FLIPR assay (reference value: 0.42 +/- 0.09 au)).

Assay [2] addresses Taste receptor type 2 member 5 (Homo sapiens) (UniProt Q9NYW4). Briefly: Agonist activity at recombinant human N-terminal rat ST3 receptor-fused TAS2R5 expressed in HEK293T cells co-expressing Galpha16gust44 assessed as effect on intracellular calcium level at 100 uM by FLIPR assay. On the technique in general: Calcium flux is commonly read through the fluorescence of an indicator in the cells.

Assay [3] concerns the target Taste receptor type 2 member 42 (Homo sapiens) (UniProt Q7RTR8). As to the kind of experiment: Agonist activity at recombinant human N-terminal rat ST3 receptor-fused TAS2R42 expressed in HEK293T cells co-expressing Galpha16gust44 assessed as effect on intracellular calcium level at 100 uM by FLIPR assay.
Assay [4] has as its target Taste receptor type 2 member 19 (Homo sapiens) (UniProt P59542). As to the kind of experiment: Agonist activity at recombinant human N-terminal rat ST3 receptor-fused TAS2R48 expressed in HEK293T cells co-expressing Galpha16gust44 assessed as effect on intracellular calcium level at 100 uM by FLIPR assay.
Assay [5] addresses Taste receptor type 2 member 7 (Homo sapiens) (UniProt Q9NYW3). As to the kind of experiment: Activity at recombinant human N-terminal rat ST3 receptor-fused TAS2R7 expressed in HEK293T cells co-expressing Galpha16gust44 assessed as increase in quinine sulfate-induced intracellular calcium level at 100 uM by FLIPR assay.
For assay [6], the target named is T1, Taste receptor type 2 member 46 (Homo sapiens). Briefly: Competitive antagonist activity at recombinant human N-terminal rat ST3 receptor-fused TAS2R46 expressed in HEK293T cells co-expressing Galpha16gust44 assessed as inhibition strychnine-induced intracellular calcium level by FLIPR assay.
The target of assay [7] is T2, Taste receptor type 2 member 1 (Homo sapiens) (UniProt Q9NYW7).
T2 sequence (whole entry): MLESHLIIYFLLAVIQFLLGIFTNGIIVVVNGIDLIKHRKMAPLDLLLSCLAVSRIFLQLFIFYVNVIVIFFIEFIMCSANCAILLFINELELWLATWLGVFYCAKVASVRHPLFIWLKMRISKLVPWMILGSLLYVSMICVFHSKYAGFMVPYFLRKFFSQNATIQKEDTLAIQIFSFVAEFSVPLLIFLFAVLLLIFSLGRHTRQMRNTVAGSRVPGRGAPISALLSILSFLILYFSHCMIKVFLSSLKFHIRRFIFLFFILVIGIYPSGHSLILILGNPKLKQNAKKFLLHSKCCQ
Briefly: Agonist activity at recombinant human N-terminal rat ST3 receptor-fused TAS2R1 expressed in HEK293T cells co-expressing Galpha16gust44 assessed as effect on intracellular calcium level at 100 uM by FLIPR assay.

Assay [8] deals with Taste receptor type 2 member 5 (Homo sapiens) (UniProt Q9NYW4). Briefly: Activity at recombinant human N-terminal rat ST3 receptor-fused TAS2R5 expressed in HEK293T cells co-expressing Galpha16gust44 assessed as increase in denatonium saccharide-induced intracellular calcium level at 100 uM by FLIPR assay.
Assay [9] concerns the target T3, Taste receptor type 2 member 30 (Homo sapiens) (UniProt P59541).
T3 sequence (whole entry): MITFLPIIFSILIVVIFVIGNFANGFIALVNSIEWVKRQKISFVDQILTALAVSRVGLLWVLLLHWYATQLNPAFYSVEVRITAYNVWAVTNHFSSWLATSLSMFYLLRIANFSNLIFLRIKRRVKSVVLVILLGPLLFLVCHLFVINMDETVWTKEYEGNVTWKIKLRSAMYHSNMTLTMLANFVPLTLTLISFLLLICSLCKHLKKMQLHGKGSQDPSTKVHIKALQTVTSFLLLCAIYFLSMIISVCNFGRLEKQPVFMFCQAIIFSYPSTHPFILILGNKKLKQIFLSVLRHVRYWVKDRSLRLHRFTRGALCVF
Briefly: Agonist activity at recombinant human N-terminal rat ST3 receptor-fused TAS2R47 expressed in HEK293T cells co-expressing Galpha16gust44 assessed as effect on intracellular calcium level at 100 uM by FLIPR assay.

Assay [10] has as its target T4, Taste receptor type 2 member 16 (Homo sapiens) (UniProt Q9NYV7).
T4 sequence (whole entry): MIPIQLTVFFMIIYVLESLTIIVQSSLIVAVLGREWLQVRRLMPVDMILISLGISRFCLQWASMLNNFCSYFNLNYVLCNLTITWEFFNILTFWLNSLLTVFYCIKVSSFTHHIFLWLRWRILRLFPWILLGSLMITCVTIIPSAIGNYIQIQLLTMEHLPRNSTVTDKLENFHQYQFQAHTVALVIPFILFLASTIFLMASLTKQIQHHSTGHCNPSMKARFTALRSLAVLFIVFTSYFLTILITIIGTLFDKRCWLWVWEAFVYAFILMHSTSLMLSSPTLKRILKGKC
Briefly: Agonist activity at recombinant human N-terminal rat ST3 receptor-fused TAS2R16 expressed in HEK293T cells co-expressing Galpha16gust44 assessed as effect on intracellular calcium level at 100 uM by FLIPR assay.

Assay [11] addresses T5, Taste receptor type 2 member 9 (Homo sapiens) (UniProt Q9NYW1).
T5 sequence (whole entry): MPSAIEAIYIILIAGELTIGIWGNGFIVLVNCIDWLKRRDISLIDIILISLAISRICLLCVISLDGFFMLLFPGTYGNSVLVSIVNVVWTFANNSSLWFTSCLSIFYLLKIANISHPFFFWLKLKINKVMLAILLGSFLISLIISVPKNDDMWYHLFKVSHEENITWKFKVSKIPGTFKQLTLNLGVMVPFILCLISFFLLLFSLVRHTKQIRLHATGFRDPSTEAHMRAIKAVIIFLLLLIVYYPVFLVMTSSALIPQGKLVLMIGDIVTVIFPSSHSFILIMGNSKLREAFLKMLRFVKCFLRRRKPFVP
Briefly: Agonist activity at recombinant human N-terminal rat ST3 receptor-fused TAS2R9 expressed in HEK293T cells co-expressing Galpha16gust44 assessed as effect on intracellular calcium level at 100 uM by FLIPR assay.

Assay [12] has as its target T6, Taste receptor type 2 member 46 (Homo sapiens, UniProt P59540).
T6 sequence (P59540 whole entry): T1 sequence (whole entry)
As to the kind of experiment: Antagonist activity at recombinant human N-terminal rat ST3 receptor-fused TAS2R46 expressed in HEK293T cells co-expressing Galpha16gust44 assessed as inhibition of 100 uM absinthin-induced intracellular calcium level 100 uM by FLIPR assay.

Sequence of Taste receptor type 2 member 5 (Homo sapiens) (Q9NYW4 whole entry, the tested form may be a part): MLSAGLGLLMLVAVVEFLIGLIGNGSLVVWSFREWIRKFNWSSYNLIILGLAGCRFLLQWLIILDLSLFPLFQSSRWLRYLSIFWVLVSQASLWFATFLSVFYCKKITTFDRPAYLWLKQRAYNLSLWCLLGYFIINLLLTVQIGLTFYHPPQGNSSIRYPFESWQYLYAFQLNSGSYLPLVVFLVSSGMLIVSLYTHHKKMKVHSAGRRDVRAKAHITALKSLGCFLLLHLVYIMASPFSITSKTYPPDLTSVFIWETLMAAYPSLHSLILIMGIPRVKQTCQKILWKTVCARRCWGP
Sequence of Taste receptor type 2 member 42 (Homo sapiens) (Q7RTR8 whole entry, the tested form may be a part): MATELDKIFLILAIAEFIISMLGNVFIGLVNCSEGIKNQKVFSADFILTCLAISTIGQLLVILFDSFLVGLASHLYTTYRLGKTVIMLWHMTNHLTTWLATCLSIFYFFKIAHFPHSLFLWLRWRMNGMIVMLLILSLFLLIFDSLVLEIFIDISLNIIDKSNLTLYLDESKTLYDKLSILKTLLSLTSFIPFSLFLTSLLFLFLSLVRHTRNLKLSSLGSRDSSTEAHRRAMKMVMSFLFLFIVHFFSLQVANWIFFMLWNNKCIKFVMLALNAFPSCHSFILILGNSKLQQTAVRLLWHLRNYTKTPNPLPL
Sequence of Taste receptor type 2 member 7 (Homo sapiens) (Q9NYW3 whole entry, the tested form may be a part): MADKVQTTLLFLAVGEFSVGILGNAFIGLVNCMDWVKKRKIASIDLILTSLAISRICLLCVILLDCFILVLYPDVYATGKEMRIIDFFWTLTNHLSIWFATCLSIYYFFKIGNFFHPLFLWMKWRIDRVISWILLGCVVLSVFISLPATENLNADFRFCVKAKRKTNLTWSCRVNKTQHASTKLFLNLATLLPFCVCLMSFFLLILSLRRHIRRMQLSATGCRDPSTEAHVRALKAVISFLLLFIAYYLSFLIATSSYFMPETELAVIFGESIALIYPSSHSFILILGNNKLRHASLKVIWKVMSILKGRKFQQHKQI
Sequence of Taste receptor type 2 member 19 (Homo sapiens) (P59542 whole entry, the tested form may be a part): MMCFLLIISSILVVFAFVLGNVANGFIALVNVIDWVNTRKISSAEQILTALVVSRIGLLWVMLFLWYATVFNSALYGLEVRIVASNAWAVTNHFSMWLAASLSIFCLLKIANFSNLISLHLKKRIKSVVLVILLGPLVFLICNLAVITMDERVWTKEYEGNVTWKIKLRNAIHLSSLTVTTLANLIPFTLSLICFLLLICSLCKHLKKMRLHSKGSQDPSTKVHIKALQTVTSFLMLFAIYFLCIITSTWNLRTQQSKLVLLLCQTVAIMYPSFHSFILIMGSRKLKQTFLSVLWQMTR

Turning to `C/C1=C\C[C@H](O)/C(C)=C/[C@H]2OC(=O)[C@@H](C)C2CC1` (some centres not stated), the Activity in assay [1] amounted to 0.4 a.u. In addition, the result in assay [2], in assay [3], in [4], in [9], in [10] and in assay [11] was inactive. Besides, the result in assay [5], in assay [7] and in [8] was Active. Also, the inhibition result in assay [6] was “Active”.

Consider `C/C1=C\C[C@H](O)[C@@H](C)C[C@H]2OC(=O)[C@@H](C)C2CC1` (some centres not stated), for which the half-inhibitory concentration (IC50) in assay [12] is 57.8 µM.
